Data set [1] can be described thus: Cytotoxicity in C8166 cells by MTT method. Particulars: human. (Formazan colour is commonly taken as a measure of viable cells.)
In another data set the test system is HIV-1IIIB. Description: Anti-HIV-1 activity. The conditions noted are these: for SI (selectivity index): ratio CC50/EC50, C8166 cells, Table 1; for times more potent than NVP: C8166, Table 1 EC50. It is filed as cell-based.
The subject of data set [2] is K103N/Y181C double mutant HIV-1 strain. Particulars: cited from earlier work.
The test system of another data set is HIV-1TC-1. It is filed as cell-based. The conditions noted are these: Human immunodeficiency virus 1, PBMC, HIV-1TC-1, PBMC; Table 2.
Another data set relates to HIV-1RF/V82F/184V. Description: Anti-HIV-1 activity against resistant strain HIV-1RF/V82F/184V in C8166 cells. It is filed as cell-based. The conditions noted are these: Human immunodeficiency virus 1, C8166.
The test system of a further data set is HIV-1_74V. Description: Anti-HIV-1 activity against resistant strain HIV-1_74V in C8166 cells. It counts as cell-based. Particulars: Human immunodeficiency virus 1, C8166.
The test system of another data set is HIV-1WAN. It counts as cell-based. Particulars: Human immunodeficiency virus 1, PBMC.
The next data set relates to HIV-1Ba-L. Description: Anti-HIV-1Ba-L activity, luciferase gene expression assay in TZM-bl cells. It is filed as cell-based. Particulars: Human immunodeficiency virus 1, TZM-b1.
Another data set in a line: Cytotoxicity in PBMC. Particulars: human, PBMC (peripheral blood mononuclear cells). It is filed as cell-based.
For a further data set, the target named is recombinant HIV-1 RT (Human immunodeficiency virus type 1 group M subtype B, UniProt P04585). Description: Enzymatic recombinant HIV-1 RT activity assay. It is filed as biochemical.
Data set [3] can be described thus: Cytotoxicity in TZM-bl cells. The conditions noted are these: human. It is filed as cell-based.
Another data set in a line: in vivo. The conditions noted are these: male, Sprague-Dawley, rat, plasma.
Data set [4] concerns HIV-1 laboratory adapted strains and primary isolated strains. It counts as cell-based. The conditions noted are these: HIV-1IIIB, HIV-1Ba-L and HIV-1TC-1; Table 2 EC50.
Another data set concerns HIV-1A17 (K103N + Y181C). Description: Anti-HIV-1 activity against resistant strain HIV-1A17. It counts as cell-based. The conditions noted are these: Human immunodeficiency virus 1, C8166.

Several values for one entry are separate records, joined by “and”; a condition that tells them apart may be missing. Identical values can stand only once. Some results are limits rather than exact numbers.

The molecule `Cc1cn([C@H]2C[C@H](N=[N+]=[N-])[C@@H](CO)O2)c(=O)[nH]c1=O` [AZT, zidovudine, reference compound] came in with a CC50 at 3 days in [1] of over 200000 nM. Besides, the “SI (selectivity index)” value in the data set with HIV-1IIIB is >22,472.

As for `Cc1cc(C#N)cc(C)c1Oc1nc(Nc2ccc(C#N)cc2)nc(N)c1Br` [ETR, etravirine, reference compound], in data set [2], the EC50 was 50 nM. This molecule had a CC50 at 3 days in [1] of 27500 ± 5690 nM. The “SI (selectivity index)” value in the data set with HIV-1IIIB was 19,628.

With `CCc1c(CC2CCCCC2)nc(SCc2cc(-c3ccccc3)[nH]n2)[nH]c1=O` [I-01, 6-(Cyclohexylmethyl)-5-ethyl-2-(((5-phenyl-1H-pyrazol-3-yl)methyl)thio)pyrimidin-4(3H)-one], in the data set on HIV-1IIIB, the “times more potent than NVP” value is given as “about 10 times”.

On to `CCc1c(CC2CCCCC2)nc(SCc2cc(-c3cccc(C)c3)[nH]n2)[nH]c1=O` [I-02, 6-(Cyclohexylmethyl)-5-ethyl-2-(((5-(m-tolyl)-1H-pyrazol-3-yl)methyl)thio)pyrimidin-4(3H)-one], for which the 50% cytotoxic concentration (CC50) at 3 days in data set [1] amounted to 82800 ± 2200 nM. The “SI (selectivity index)” value in the data set on HIV-1IIIB is reported as 1120.

For `CCc1c(CC2CCCCC2)nc(SCc2cc(-c3ccc(C)cc3)[nH]n2)[nH]c1=O` [I-07, 6-(Cyclohexylmethyl)-5-ethyl-2-(((5-(p-tolyl)-1H-pyrazol-3-yl)methyl)thio)pyrimidin-4(3H)-one], the midpoint of cytotoxicity in data set [1], the CC50 at 3 days, lay at 91400 ± 1900 nM. For the same molecule, in the data set with HIV-1IIIB, the “SI (selectivity index)” value came out at 1748.

`CCc1c(CC2CCCCC2)nc(SCc2cc(-c3ccc(O)cc3)[nH]n2)[nH]c1=O` [I-11, 6-(Cyclohexylmethyl)-5-ethyl-2-(((5-(4-hydroxyphenyl)-1H-pyrazol-3-yl)methyl)thio)pyrimidin-4(3H)-one] yielded an EC50 in the data set with HIV-1TC-1 of 14.5 ± 0.1 nM. The same molecule displayed an EC50 with HIV-1RF/V82F/184V of 54.1 ± 23.1 nM. This molecule had an EC50 in the data set with HIV-1_74V of 46.2 ± 23.7 nM. For the same molecule, it took 56.6 ± 2.4 nM to reach a half-maximal effect in the data set with HIV-1WAN (EC50). This molecule also returned an EC50 with HIV-1Ba-L of 48.5 ± 6.8 nM. The molecule also registered a CC50 in “Cytotoxicity in PBMC” of 46800 ± 5200 nM. Moreover, the IC50 on recombinant HIV-1 RT amounted to 1090 ± 590 nM. In addition, the “times more potent than NVP” value with HIV-1IIIB is reported as “about 10 times”. This molecule had a CC50 at 3 days in data set [3] of 77100 ± 3680 nM. Besides, in “in vivo” (iv, 1 mg/kg), the AUC(0-inf) amounted to 2630 ng·h/mL, the AUC(0-t) was 2600 ng·h/mL, the highest level (Cmax) was 7180 ng/mL and the MRT inf is 33.2 min. In “in vivo” (iv, 1 mg/kg), this molecule had a Vd of 0.213 L/kg, a clearance of 6.4 mL/min/kg and a half-life of 72 min. Besides, the bioavailability in “in vivo” (oral, 5 mg/kg) came to 10.4%. In the data set “in vivo” (po, 5 mg/kg), the AUC(0-inf) was 1370 ng·h/mL; the AUC(0-t) worked out at 1300 ng·h/mL; the CL/F was 63.8 mL/min/kg; the Cmax was 1.54 µM and 654 ng/mL. Further, in “in vivo” (po, 5 mg/kg), the MRT amounted to 33.2 min, the Tmax came out at 30 min and the half-life was 150 min. For the same molecule, in data set [4], the “times more potent than NVP” value is 5–14 times. Also, the EC50 in the data set on HIV-1A17 (K103N + Y181C) came out at 2770 ± 820 nM.

Turning to `CCc1c(CC2CCCCC2)nc(SCc2cc(-c3ccc(SC)cc3)[nH]n2)[nH]c1=O` [I-12, 6-(Cyclohexylmethyl)-5-ethyl-2-(((5-(4-(methylthio)phenyl)-1H-pyrazol-3-yl)methyl)thio)pyrimidin-4(3H)-one], the concentration giving a half-maximal response (EC50) with HIV-1TC-1 amounted to 55.4 ± 11.2 nM; in the data set with HIV-1RF/V82F/184V, 219 ± 46.5 nM; with HIV-1_74V it was 88.1 ± 17.9 nM; in the data set on HIV-1WAN, 165 nM; in the data set with HIV-1Ba-L, 193 ± 26.1 nM; in the data set with HIV-1A17 (K103N + Y181C) it was 4870 ± 2710 nM. The CC50 in “Cytotoxicity in PBMC” is over 200000 nM. The IC50 at recombinant HIV-1 RT came out at 2270 ± 120 nM. This molecule also gave a cytotoxic concentration (CC50) at 3 days in data set [3] of over 200000 nM.

With `CCc1c(CC2CCCCC2)nc(SCc2n[nH]c(-c3ccc(Cl)c(Cl)c3)c2Cl)[nH]c1=O` [I-32, 2-(((4-Chloro-5-(3,4-dichlorophenyl)-1H-pyrazol-3-yl)methyl)thio)-6-(cyclohexylmethyl)-5-ethyl-pyrimidin-4(3H)-one], half-maximal cytotoxicity in [1] (CC50 at 3 days) was put at 190000 ± 13900 nM. Besides, in the data set on HIV-1IIIB, the “SI (selectivity index)” value was found to be 544.

Molecule `O=c1cc(CC2CCCCC2)nc(SCc2cc(-c3ccccc3)[nH]n2)[nH]1` [I-38, 6-(Cyclohexylmethyl)-2-(((5-phenyl-1H-pyrazol-3-yl)methyl)thio)pyrimidin-4(3H)-one] displayed a CC50 at 3 days in [1] of 79100 ± 5340 nM. In addition, the “SI (selectivity index)” value in the data set with HIV-1IIIB amounted to 16.

On to `Cc1ccnc2c1NC(=O)c1cccnc1N2C1CC1` [NVP, nevirapine, reference compound], for which the EC50 came out at 199 ± 48.7 nM in the data set on HIV-1TC-1; 61.4 ± 8.5 nM in the data set on HIV-1RF/V82F/184V; 76.8 ± 19.3 nM in the data set with HIV-1_74V; 77 ± 19.3 nM in the data set on HIV-1WAN; 166 ± 46.5 nM in the data set on HIV-1Ba-L; 20200 ± 3100 nM with HIV-1A17 (K103N + Y181C). Also, the CC50 in “Cytotoxicity in PBMC” was over 200000 nM. In addition, the CC50 at 3 days in [3] was over 200000 nM.

For orientation: CC50 means the concentration at which the toxic effect on the cells reaches its halfway point. The EC50 is the concentration needed to bring the measured effect to its halfway point. The IC50 is the concentration at which inhibition is half-maximal. The AUC(0-inf) is the area under the concentration-time curve extrapolated to infinity. Read a low AUC(0-inf) as less exposure. As usually defined, the AUC(0-t) is exposure summed from dosing to a finite time, without extrapolation to infinity. A high value points to more exposure. What is called Cmax is the peak of the concentration-time curve. Broadly, the MRT inf is a mean duration of stay, worked out from the concentration-time curve. For orientation: Vd means a proportionality between amount in the body and measured concentration, not a real space. A low value points to confinement near the circulation. The clearance is the rate of elimination divided by the concentration. One may read the half-life as how long it takes for the measured level to halve. What is called bioavailability is dose-corrected exposure relative to a reference, in per cent. Higher therefore signals much systemic uptake. What is called CL/F is clearance divided by bioavailability, as obtained after extravascular dosing. In general, MRT refers to the average time that molecules of a dose stay in the body. Broadly, the Tmax is the time at which the peak concentration occurs.

Values taken from paper PMC7049619 (Acta Pharmaceutica Sinica. B, 2019).
